In general, IC50 refers to the concentration at which inhibition is half-maximal. High values mean weaker potency, low ones greater potency. One may read the pKa as the negative logarithm of the acid dissociation constant. The low end stands for a stronger acid or weaker base, the high end for a weaker acid or stronger base. Usually clearance stands for the rate of elimination divided by the concentration. Read a high clearance as a high capacity for elimination. By bioavailability is commonly meant the share of a dose that reaches the circulation, judged against a reference dose that is usually intravenous. High values mean good availability, low ones poor availability.

Data on 11 molecules can be found in ChEMBL document CHEMBL1153181, “SAR of N-phenyl piperidine based oral integrin alpha5beta1 antagonists” (Bioorg Med Chem Lett, 2010).

The target of data set [1] is Integrin alpha-IIb/beta-3 (Homo sapiens, UniProt P05106+P08514). Description: Inhibition of integrin alpha2bbeta3 receptor by ELISA. Type of data set: protein-complex assay. In general terms: An ELISA detects its analyte on a solid surface through an enzyme-linked reagent.
Sequence of Integrin alpha-IIb/beta-3 (P05106 27-788 limits assumed): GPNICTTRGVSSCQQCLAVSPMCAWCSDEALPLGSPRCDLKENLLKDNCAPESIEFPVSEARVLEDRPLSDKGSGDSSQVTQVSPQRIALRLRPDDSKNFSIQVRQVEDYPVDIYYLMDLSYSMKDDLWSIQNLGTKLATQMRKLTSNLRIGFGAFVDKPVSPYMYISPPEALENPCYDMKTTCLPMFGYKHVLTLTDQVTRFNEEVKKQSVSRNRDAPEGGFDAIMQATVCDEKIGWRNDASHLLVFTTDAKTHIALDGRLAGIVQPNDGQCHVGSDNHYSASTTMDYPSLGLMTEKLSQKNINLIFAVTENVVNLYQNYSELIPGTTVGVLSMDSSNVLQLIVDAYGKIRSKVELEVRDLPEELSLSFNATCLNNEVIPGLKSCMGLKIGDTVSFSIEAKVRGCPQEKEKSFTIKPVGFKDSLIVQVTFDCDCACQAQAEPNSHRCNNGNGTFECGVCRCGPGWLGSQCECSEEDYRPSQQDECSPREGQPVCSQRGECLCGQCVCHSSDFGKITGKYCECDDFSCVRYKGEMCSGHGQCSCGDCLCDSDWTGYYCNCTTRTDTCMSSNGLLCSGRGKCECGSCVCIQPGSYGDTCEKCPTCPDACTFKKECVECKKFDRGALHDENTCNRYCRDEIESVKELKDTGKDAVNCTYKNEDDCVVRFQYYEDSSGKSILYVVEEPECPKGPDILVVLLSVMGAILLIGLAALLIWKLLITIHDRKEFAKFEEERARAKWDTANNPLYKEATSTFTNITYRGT
Sequence of Integrin alpha-IIb/beta-3 (P08514 32-887 limits assumed): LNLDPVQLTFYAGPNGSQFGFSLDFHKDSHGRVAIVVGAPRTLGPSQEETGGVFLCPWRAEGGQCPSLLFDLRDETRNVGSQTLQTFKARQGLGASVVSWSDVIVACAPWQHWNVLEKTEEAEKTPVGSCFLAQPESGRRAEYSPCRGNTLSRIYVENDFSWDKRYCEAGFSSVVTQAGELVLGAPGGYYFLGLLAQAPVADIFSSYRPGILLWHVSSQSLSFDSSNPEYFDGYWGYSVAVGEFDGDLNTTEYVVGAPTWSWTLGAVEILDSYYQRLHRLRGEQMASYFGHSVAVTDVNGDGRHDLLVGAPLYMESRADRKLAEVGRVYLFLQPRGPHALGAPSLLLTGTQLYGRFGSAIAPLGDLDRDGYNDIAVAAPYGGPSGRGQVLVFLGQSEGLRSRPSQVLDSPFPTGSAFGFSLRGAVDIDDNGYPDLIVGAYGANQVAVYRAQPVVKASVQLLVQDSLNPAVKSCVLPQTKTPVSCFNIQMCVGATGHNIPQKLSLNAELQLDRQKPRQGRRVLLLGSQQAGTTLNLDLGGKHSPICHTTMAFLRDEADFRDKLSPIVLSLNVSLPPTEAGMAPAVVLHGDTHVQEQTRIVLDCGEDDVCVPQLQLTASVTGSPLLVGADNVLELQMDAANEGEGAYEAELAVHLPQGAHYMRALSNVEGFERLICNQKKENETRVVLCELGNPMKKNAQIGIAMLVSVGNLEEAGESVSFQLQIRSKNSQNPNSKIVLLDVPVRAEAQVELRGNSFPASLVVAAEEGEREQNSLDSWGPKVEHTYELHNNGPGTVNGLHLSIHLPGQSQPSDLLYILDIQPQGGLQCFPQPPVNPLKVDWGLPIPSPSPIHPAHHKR
Sequence of Integrin alpha-IIb/beta-3 (P08514 891-1039 limits assumed): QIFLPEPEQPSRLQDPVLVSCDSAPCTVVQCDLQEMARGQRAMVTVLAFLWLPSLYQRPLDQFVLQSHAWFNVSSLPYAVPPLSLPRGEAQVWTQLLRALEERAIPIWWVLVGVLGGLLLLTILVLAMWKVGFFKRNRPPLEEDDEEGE
A further data set concerns the target Integrin alpha-V/beta-3 (Homo sapiens, UniProt P05106+P06756). Description: Inhibition of integrin […] receptor by ELISA. The format is protein-complex assay.
A further data set addresses Integrin alpha-V/beta-5 (Homo sapiens, UniProt P06756+P18084). In words: Inhibition of integrin […] receptor by ELISA. The format is protein-complex assay.
Data set [2] has as its target T1, Integrin alpha-5/beta-1 (Homo sapiens, UniProt P05556+P08648). In words: Inhibition of integrin alpha5beta1 receptor by ELISA. The format is protein-complex assay.
The nature of data set [3]: Metabolic stability in human microsomes assessed as compound remaining at 1 uM after 1 hr. Particulars: read-out: Stability. The format is ADME, Microsome.
Data set [4] in a line: Dissociation constant, pKa of the compound. Type of data set: physicochemical.
The nature of data set [5]: Metabolic stability in rat microsomes assessed as compound remaining at 1 uM after 1 hr. Type of data set: ADME, Microsome. Conditions: read-out: Stability.
In data set [6] the target is T1, Integrin alpha-5/beta-1. In words: Inhibition of integrin alpha5beta1 receptor-mediated HEK293 cell adhesion. Type of data set: cell-based.
Data set [7] in a line: Systemic clearance in Beagle dog at 10 mg/kg, iv administered as bolus dose. The format is ADME, organism-based, Canis lupus familiaris. More on the design: dose 10 mg/kg, route intravenous. Particulars: in vivo.
The nature of data set [8]: Elimination half life in Beagle dog at 10 mg/kg, iv administered as bolus dose. Type of data set: ADME, organism-based, Canis lupus familiaris. Further details: dose 10 mg/kg, route intravenous. Particulars: in vivo, read-out: beta t1/2.
Data set [9] is described as follows: Oral bioavailability in Beagle dog at 10 mg/kg administered as bolus dose. The format is ADME, organism-based, Canis lupus familiaris. Conditions: in vivo.
The subject of a further data set is Canis familiaris. Description: Hepatic blood flow in Beagle dog at 10 mg/kg, iv administered as bolus dose. The format is ADME, organism-based, Canis lupus familiaris, Liver. Particulars: in vivo. Further details: dose 10 mg/kg, route intravenous.
Data set [10] can be described thus: Total body clearance in rat at 1 mg/kg, iv. Type of data set: ADME, organism-based. Further details: dose 1 mg/kg, route intravenous. Conditions: in vivo.
A short description of data set [11]: Oral bioavailability in rat at 10 mg/kg, po. The format is ADME, organism-based. Particulars: in vivo.

T1 sequence (P05556 21-798 limits assumed): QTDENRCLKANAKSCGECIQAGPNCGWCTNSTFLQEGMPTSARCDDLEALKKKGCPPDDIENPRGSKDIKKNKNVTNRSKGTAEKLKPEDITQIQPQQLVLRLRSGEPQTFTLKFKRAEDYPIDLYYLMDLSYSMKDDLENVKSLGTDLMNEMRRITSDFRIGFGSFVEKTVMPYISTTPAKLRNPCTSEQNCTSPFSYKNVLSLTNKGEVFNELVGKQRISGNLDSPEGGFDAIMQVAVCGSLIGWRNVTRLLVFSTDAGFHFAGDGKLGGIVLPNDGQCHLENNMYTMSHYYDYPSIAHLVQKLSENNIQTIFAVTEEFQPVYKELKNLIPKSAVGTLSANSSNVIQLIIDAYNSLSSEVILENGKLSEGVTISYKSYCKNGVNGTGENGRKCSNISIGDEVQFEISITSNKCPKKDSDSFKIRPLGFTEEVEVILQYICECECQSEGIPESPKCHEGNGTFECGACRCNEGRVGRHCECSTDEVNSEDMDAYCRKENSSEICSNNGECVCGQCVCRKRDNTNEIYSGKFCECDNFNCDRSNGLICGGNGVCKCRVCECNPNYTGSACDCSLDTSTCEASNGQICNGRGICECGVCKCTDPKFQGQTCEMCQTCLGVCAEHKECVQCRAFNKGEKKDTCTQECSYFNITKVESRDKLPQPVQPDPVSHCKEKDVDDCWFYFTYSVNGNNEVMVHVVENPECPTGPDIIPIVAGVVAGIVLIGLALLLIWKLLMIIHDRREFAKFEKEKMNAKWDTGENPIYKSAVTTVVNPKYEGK
T1 sequence (P08648 42-894 limits assumed): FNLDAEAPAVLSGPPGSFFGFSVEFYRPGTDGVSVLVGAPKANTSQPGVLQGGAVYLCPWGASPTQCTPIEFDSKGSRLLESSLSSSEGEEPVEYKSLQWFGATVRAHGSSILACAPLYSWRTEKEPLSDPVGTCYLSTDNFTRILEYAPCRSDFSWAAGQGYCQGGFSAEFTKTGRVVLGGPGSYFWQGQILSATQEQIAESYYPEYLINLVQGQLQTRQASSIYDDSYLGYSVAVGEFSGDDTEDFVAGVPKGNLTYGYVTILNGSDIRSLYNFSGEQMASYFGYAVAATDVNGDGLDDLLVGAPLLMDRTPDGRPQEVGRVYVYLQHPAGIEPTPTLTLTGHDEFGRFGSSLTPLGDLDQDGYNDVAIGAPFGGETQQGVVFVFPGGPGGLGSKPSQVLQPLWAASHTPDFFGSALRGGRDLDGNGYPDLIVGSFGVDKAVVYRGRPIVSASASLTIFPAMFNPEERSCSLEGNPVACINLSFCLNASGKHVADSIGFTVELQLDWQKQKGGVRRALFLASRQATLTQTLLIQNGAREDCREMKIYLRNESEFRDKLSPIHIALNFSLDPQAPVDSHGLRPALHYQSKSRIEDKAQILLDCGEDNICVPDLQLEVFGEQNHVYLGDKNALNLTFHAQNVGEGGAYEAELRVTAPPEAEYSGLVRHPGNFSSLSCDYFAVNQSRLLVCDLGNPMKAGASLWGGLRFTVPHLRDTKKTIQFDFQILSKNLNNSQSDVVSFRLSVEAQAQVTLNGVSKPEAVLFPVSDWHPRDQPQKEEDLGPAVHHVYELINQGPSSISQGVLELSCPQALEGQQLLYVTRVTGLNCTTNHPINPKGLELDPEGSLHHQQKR
T1 sequence (P08648 895-1049 limits assumed): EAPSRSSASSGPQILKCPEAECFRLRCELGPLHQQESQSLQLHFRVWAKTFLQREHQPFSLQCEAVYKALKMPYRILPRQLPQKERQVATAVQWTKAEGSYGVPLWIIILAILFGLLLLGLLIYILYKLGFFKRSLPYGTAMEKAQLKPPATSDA
Sequence of Integrin alpha-V/beta-3 (P05106 27-788 limits assumed): as the sequence (P05106 27-788 limits assumed) above
Sequence of Integrin alpha-V/beta-3 (P06756 31-889 limits assumed): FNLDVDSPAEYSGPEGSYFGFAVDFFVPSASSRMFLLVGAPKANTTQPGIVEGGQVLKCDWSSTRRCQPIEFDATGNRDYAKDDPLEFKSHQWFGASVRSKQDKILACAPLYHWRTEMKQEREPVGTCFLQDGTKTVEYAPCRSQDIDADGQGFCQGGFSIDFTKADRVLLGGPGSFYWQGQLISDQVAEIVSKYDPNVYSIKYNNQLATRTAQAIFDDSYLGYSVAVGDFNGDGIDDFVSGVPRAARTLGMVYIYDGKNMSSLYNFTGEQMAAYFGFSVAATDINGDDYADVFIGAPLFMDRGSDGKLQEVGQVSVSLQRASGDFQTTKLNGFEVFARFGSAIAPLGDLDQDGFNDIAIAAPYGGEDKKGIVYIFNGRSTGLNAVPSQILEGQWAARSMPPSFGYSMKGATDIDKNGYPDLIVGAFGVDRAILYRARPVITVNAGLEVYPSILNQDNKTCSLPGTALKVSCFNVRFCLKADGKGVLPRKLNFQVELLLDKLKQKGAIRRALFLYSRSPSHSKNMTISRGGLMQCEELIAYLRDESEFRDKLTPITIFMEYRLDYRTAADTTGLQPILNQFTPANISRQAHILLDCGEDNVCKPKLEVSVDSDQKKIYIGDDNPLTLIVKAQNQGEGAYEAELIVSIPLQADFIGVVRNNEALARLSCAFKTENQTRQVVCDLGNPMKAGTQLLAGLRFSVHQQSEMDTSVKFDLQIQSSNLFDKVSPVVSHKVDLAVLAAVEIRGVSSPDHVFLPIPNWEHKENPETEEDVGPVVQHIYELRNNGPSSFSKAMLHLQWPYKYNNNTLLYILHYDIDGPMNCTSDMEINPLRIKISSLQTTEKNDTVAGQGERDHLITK
Sequence of Integrin alpha-V/beta-3 (P06756 891-1048 limits assumed): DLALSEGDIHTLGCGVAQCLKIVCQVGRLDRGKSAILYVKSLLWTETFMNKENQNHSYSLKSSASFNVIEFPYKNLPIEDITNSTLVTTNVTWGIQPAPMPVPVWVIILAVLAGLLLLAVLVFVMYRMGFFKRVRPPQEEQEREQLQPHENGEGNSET

For the molecule `Cc1cc(F)cc(C)c1C(=O)NC(Cc1ccc(N2CCC(CNc3ccccn3)CC2)cc1)C(=O)O` (stereo not given), the IC50 in data set [1] worked out at 105000 nM; against Integrin alpha-V/beta-3 it was 402 nM; against Integrin alpha-V/beta-5, 8290 nM; against Integrin alpha-5/beta-1 [2], 2.7 nM. Further, the remaining at 1 h, 1 µM in data set [3] was 69%.

On to `O=C(N[C@@H](Cc1ccc(N2CCC(CNc3ccccn3)CC2)cc1)C(=O)O)c1ccccc1`, for which the concentration for half-maximal inhibition (IC50) was 14800 nM in [1], 4.3 nM at Integrin alpha-V/beta-3, 32.1 nM on Integrin alpha-V/beta-5 and 70 nM against Integrin alpha-5/beta-1 [2].

Turning to `Cc1ccnc(NCC2CCN(c3ccc(CC(NC(=O)c4c(C)cc(C)cc4C)C(=O)O)cc3)CC2)c1` (stereo not given), in data set [4], the pKa was 7.5. Besides, the results for the half-inhibitory concentration (IC50) (in [1]; at Integrin alpha-V/beta-5; against Integrin alpha-5/beta-1 [6]) were 23400 nM, 10700 nM and 69 nM, respectively. The remaining at 1 h, 1 µM in [5] was determined as 77%.

Take `CCc1cc(F)cc(C)c1C(=O)N[C@@H](Cc1ccc(N2CCC(CNc3ccccn3)CC2)cc1)C(=O)O`: the IC50 in data set [1] was determined as 121000 nM; against Integrin alpha-V/beta-3 it was 614 nM; on Integrin alpha-V/beta-5, 12400 nM; on Integrin alpha-5/beta-1 [2] it was 0.9 nM; on Integrin alpha-5/beta-1 [6] it was 21 nM. The clearance in [7] worked out at 11 mL/min/kg. Besides, the half-life in data set [8] turned out to be 3.58 h. Besides, in [9], the bioavailability amounted to 11%. This molecule also came in with an LBF in the data set with Canis familiaris of 37%.

In turn, `COc1ccnc(NCC2CCN(c3ccc(CC(NC(=O)c4c(C)cc(C)cc4C)C(=O)O)cc3)CC2)c1` (stereo not given) had a clearance in [10] of 110 mL/min/kg. In addition, the pKa in data set [4] was found to be 7.7. Also, the IC50 on Integrin alpha-V/beta-3 was 89 nM; at Integrin alpha-V/beta-5 it was 3540 nM; against Integrin alpha-5/beta-1 [2] it was 0.92 nM; against Integrin alpha-5/beta-1 [6], 34 nM. The remaining at 1 h, 1 µM in [5] is 62%. Moreover, in data set [11], the bioavailability amounted to 6%.

As for `CCc1cc(F)cc(C)c1C(=O)N[C@H](Cc1ccc(N2CCC(CNc3ccccn3)CC2)cc1)C(=O)O`, the IC50 in data set [1] amounted to 159000 nM; at Integrin alpha-V/beta-3, 16600 nM; on Integrin alpha-V/beta-5, 15600 nM; on Integrin alpha-5/beta-1 [2] it was 351 nM; against Integrin alpha-5/beta-1 [6], 6910 nM.

Consider `O=C(O)[C@H](Cc1ccc(N2CCC(CNc3ccccn3)CC2)cc1)N1Cc2ccccc2C1=O`, for which the IC50 worked out at 76700 nM in [1], 13.4 nM on Integrin alpha-V/beta-3, 3320 nM against Integrin alpha-V/beta-5 and 234 nM against Integrin alpha-5/beta-1 [2].

Regarding `Cc1cccc(C)c1C(=O)NC(Cc1ccc(N2CCC(CNc3ccccn3)CC2)cc1)C(=O)O` (stereo not given), the IC50 stood at 77700 nM in data set [1], 239 nM at Integrin alpha-V/beta-3, 1870 nM against Integrin alpha-V/beta-5 and 1.6 nM against Integrin alpha-5/beta-1 [2]. Besides, the remaining at 1 h, 1 µM in data set [3] was 59%.

`CCc1cccc(C)c1C(=O)NC(Cc1ccc(N2CCC(CNc3ccccn3)CC2)cc1)C(=O)O` (stereo not given): the IC50 in data set [1] stood at 87200 nM; against Integrin alpha-V/beta-3, 648 nM; on Integrin alpha-V/beta-5, 11500 nM; on Integrin alpha-5/beta-1 [2], 2.2 nM. Further, in data set [3], the remaining at 1 h, 1 µM stood at 52%.

In data set [10], `Cc1cc(C)c(C(=O)NC(Cc2ccc(N3CCC(CNc4ccccn4)CC3)cc2)C(=O)O)c(C)c1` (stereo not given) displayed a clearance of 16 mL/min/kg. In data set [4], the pKa was determined as 7. In addition, the IC50 in [1] worked out at 40200 nM; against Integrin alpha-V/beta-3 it was 642 nM; on Integrin alpha-V/beta-5, 15000 nM; on Integrin alpha-5/beta-1 [2] it was 2.1 nM; against Integrin alpha-5/beta-1 [6], 198 nM. For the same molecule, the remaining at 1 h, 1 µM in data set [5] is 85%. In addition, in data set [11], the bioavailability was found to be 24%.

As to `CCc1cc(F)cc(C)c1C(=O)NC(Cc1ccc(N2CCC(CNc3ccccn3)CC2)cc1)C(=O)O` (stereo not given), the IC50 amounted to 71700 nM in data set [1]; 1050 nM against Integrin alpha-V/beta-3; 11700 nM against Integrin alpha-V/beta-5; 2 nM against Integrin alpha-5/beta-1 [2]; 76 nM against Integrin alpha-5/beta-1 [6]. Besides, the remaining at 1 h, 1 µM in [3] was 105%.
